# Entries after “also recorded” stand apart in the source; their conditions may differ.
# How the values were obtained:
# [1] = Rheometry: disulfide dimer study, elastic modulus (G′) of sputum (source not stated); parameters: species or system human; conditions: 10 mM (FIG. 2)
# Protocol: (§1) A rheometer was employed to determine the effect of the compounds disclosed herein on the elastic modulus (G′) of sputum sample from human subjects. The terms “elastic modulus,” “G′,” and the like refer to the elastic modulus as known in the art. Inhalation of 3% saline facilitates mucus expectoration (“induced sputum”) in human subjects, including in healthy subjects without lung disease. A typical sputum induction yields 3-5 mL of sputum, and induced sputum samples can be pooled from several donors in order to provide as much as 20 mL with for any given set of experiments. The rheometer can use 1 mL per assay. Rheological measurements can be made, e.g., with a AR2000 cone-and-plate rheometer (TA Instruments), as known in the art.
# (§2) Patients with cystic fibrosis (CF) are able to spontaneously expectorate sputum samples. […] We typically add the test compound to induced sputum at a 10% v/v, and we calculate effect of the test compound by measuring G′ every 2 minutes for periods up to 20 minutes. Because oxidation can cause baseline drift, we keep the experiment under nitrogen to improve signal to noise ratios. We custom modified a cone and plate rheometer to permit this kind of control in our rheometry experiments. Another protocol element that we use to optimize signal to noise is the addition of protease inhibitors to CF sputum to inhibit protease digestion of mucin. […]
# [2] = Oxidation-reduction potential (ORP) measurement; type: physicochemical; conditions: solutions (1 mM); for Reducing capacity (ORP): ORP probe; for reducing properties (in words): compared to parent sugar (PS) control
# Protocol: An INLAB® Redox Micro ORP probe (Mettler Toledo) was employed, which utilizes a small platinum ring indicator electrode and a 3M KCL reference electrolyte. ORP values were determined for thiosaccharides, NAC and glutathione.
# [3] = Rheometry: elastic modulus (G′) of pooled induced sputum from healthy subjects; parameters: species or system human; conditions: for effect on elastic modulus G′ (in words): 1 mM (FIG. 1)
# Protocol: A rheometer was employed to determine the effect of the compounds disclosed herein on the elastic modulus (G′) of sputum sample from human subjects. The terms “elastic modulus,” “G′,” and the like refer to the elastic modulus as known in the art. Inhalation of 3% saline facilitates mucus expectoration (“induced sputum”) in human subjects, including in healthy subjects without lung disease. A typical sputum induction yields 3-5 mL of sputum, and induced sputum samples can be pooled from several donors in order to provide as much as 20 mL with for any given set of experiments. The rheometer can use 1 mL per assay. Rheological measurements can be made, e.g., with a AR2000 cone-and-plate rheometer (TA Instruments), as known in the art. Patients with cystic fibrosis (CF) are able to spontaneously expectorate sputum samples. […] We typically add the test compound to induced sputum at a 10% v/v, and we calculate effect of the test compound by measuring G′ every 2 minutes for periods up to 20 minutes. Because oxidation can cause baseline drift, we keep the experiment under nitrogen to improve signal to noise ratios. We custom modified a cone and plate rheometer to permit this kind of control in our rheometry experiments. Another protocol element that we use to optimize signal to noise is the addition of protease inhibitors to CF sputum to inhibit protease digestion of mucin. As depicted in FIG. 1, the elastic modulus (G′) of pooled induced sputum from five healthy subjects was determined as a function of time in the presence of 1 mM PBS (phosphate buffered saline), NAC (N-acetylcysteine), Cmpd 1, Cmpd 29, Glc-NAc, and Gal-NAc.
# [4] = Rheometry: elastic modulus (G′) of sputum from cystic fibrosis (CF) patients; parameters: species or system human; conditions: for effect on G′ of CF sputum: sputum pooled from three CF patients (FIG. 3); for mucolytic effect: change in elastic modulus G′ (%-change from baseline): twelve-minute test period (FIG. 5A); for mucolytic effect on elastic modulus G′ over 12-minute test period: CF sputum n=5 donors (FIG. 7A); for mucolysis: onset and endpoint (12-minutes), change in G′: single sputum sample from a CF patient (FIG. 6)
# Protocol: as §1, §2
# A series of time courses of the change in baseline G′ (%-change from baseline) of sputum samples at 10 mM concentration of MDG and Cmpds 1-5 is depicted in FIG. 6. Each datum in the figure was obtained from a single sputum sample from a patient with cystic fibrosis. […] Moreover, the length of the chain leading to the thiol is important; compare Cmpd 2 (C5 alkylene) vs. Cmpd 3 (C2 alkylene).
# A time course of the change in baseline G′ (%-change from baseline) at 10 mM concentration of thiosaccharide is depicted in FIG. 7A. The drugs compared include an unmodified sugar (MDG), Glutathione (GSH, a natural endogenous reducing agent), N-acetyl cysteine (NAC), Cmpd 1 and Cmpd 2.
# [5] = cited from earlier work
# [6] = 61 mM, CF sputum n=5 donors, 12 minutes (FIG. 5C)
Reducing capacity (ORP) [2] [mV],reducing properties (in words) [2],Structure (SMILES),"mucolytic effect: change in elastic modulus G′ (%-change from baseline) ([4]; 61 mM, CF sputum n=5 donors)",mucolytic effect on elastic modulus G′ over 12-minute test period ([4]; 10 mM),"mucolysis: onset and endpoint (12-minutes), change in G′ ([4]; 10 mM)",also measured
99,relatively strong reducing capabilities,"CO[C@H]1OC(CS)[C@H](O)C(O)C1O (stereo partly drawn) [Cmpd 1, methyl 6-deoxy-6-thio-α-D-galactopyranoside]",decrease the elastic modulus (G′),–,–,"efficacy in reducing elastic modulus G′ (comparison) [1]: more effective in reducing elastic modulus G′ than either the disulfide dimer of Cmpd 1 or Cmpd 6; decrease in elastic modulus G′ ([3]; 1 mM, during the time course of the experiment (FIG. 1)): ~30%; effect on G′ of CF sputum ([4]; 10 mM): larger than the effect in healthy induced sputum; onset of action ([4]; 61 mM, CF sputum): significantly faster onset of action relative to either parent sugar MDG or NAC; average mucolytic effect at two minutes ([4]; 61 mM, CF sputum n=5 donors, 2 minutes (FIG. 5B)): significantly larger than observed for NAC; also recorded: much larger mucolytic effects than NAC; mucolytic effect at 12 minutes [4, 6]: similar; decrease in elastic modulus G′ of individual sputum samples from CF patients ([4]; individual samples from three CF patients (FIGS. 4A-4D)): ca. 50%"
176,–,"CO[C@H]1O[C@H](CO)[C@H](O)[C@H](O)[C@H]1O [MDG, methyl α-D-galactopyranoside, reference compound]",no mucolytic effect,ineffective as mucolytics,–,effect on G′ of CF sputum ([4]; 10 mM): ineffective in decreasing G′ of CF sputum
–,–,CO[C@H]1OC(CO)[C@H](S)[C@H](O)C1O (stereo partly drawn) [Cmpd 29],–,–,–,effect on elastic modulus G′ (in words) [3]: approximately half of the decrease in G′ observed with Cmpd 1
121,did not have strong reducing properties,"CC(=O)N[C@@H](CS)C(=O)O [NAC, N-Acetylcysteine, reference compound]",decrease the elastic modulus (G′),no better than control solutions,–,"pKa [5]: 2.2; effect on elastic modulus G′ (in words) [3]: not effective in decreasing G′; mucolytic effect at 12 minutes [4, 6]: similar"
–,–,OCC1O[C@H](OCCCCCS)C(O)[C@@H](O)[C@@H]1O (stereo partly drawn) [Cmpd 4],–,–,"a galactose moiety (i.e., Cmpd 2) affords a better mucolytic than mannose (Cmpd 5) or glucose (Cmpd 4)",–
−15,very strong reducing activity,"OCC1O[C@@H](OCCCCCS)C(O)[C@@H](O)[C@H]1O (stereo partly drawn) [Cmpd 2, 5-Thiolpentyl β-D-galactopyranoside]",–,largest effect,affords a better mucolytic than mannose (Cmpd 5) or glucose (Cmpd 4),"mucolytic effect at two minutes ([4]; 10 mM, CF sputum n=5 donors, 2 minutes (FIG. 7B)): much larger mucolytic effects than NAC; mucolytic effect at 12 minutes ([4]; 10 mM, CF sputum n=5 donors, 12 minutes (FIG. 7C)): significantly greater than observed for NAC; also recorded: significantly greater than for Cmpd 1; also recorded: much larger mucolytic effects than NAC; also recorded: significantly greater than that of Cmpd 1"
140,did not have strong reducing properties,"N[C@@H](CCC(=O)N[C@@H](CS)C(=O)NCC(=O)O)C(=O)O [GSH, Glutathione]",–,ineffective as mucolytics,–,–
–,–,OCC1O[C@@H](OCCCCCS)C(O)[C@@H](O)[C@@H]1O (stereo partly drawn) [Cmpd 5],–,–,"a galactose moiety (i.e., Cmpd 2) affords a better mucolytic than mannose (Cmpd 5) or glucose (Cmpd 4)",–
